Experimental data as given in patent US20030161871A1, “Solubilized riboflavin” (priority 2001, published 2003).
In brackets after ≈: the same amount, converted by molar mass. Like-named read-outs stand apart in the source and are kept apart here.

Columns and labels:
[1] = Solubility of riboflavin as a function of pH and % FMN; format: physicochemical; conditions: for solubility thermodynamic: thermodynamic from solid
Excerpt: The equilibrium solubility of riboflavin is approximately 70 mcg/ml (see plot below with no FMN present). Precipitation is expected to occur if riboflavin reaches a level above this (due to riboflavin in drug substance or due to degradation to riboflavin with time), and precipitation would be unacceptable for patient safety with intravenous use.
Solubility of Riboflavin as a function of pH and % FMN [formula]
At 1% FMN, up to 365 mcg/ml of riboflavin can dissolve.

[2] = Solubilization of lumichrome in the FMN formulation; format: physicochemical

Structure (SMILES)	solubility thermodynamic ([1]; 1% FMN solution, aqueous with cosolvent or surfactant or cyclodextrin, read-out: riboflavin that can dissolve (equilibrium solubility)) [µg/mL]	solubility thermodynamic ([1]; 5% FMN solution, aqueous with cosolvent or surfactant or cyclodextrin, 5% FMN, pH 7-8, read-out: riboflavin that can dissolve (equilibrium solubility)) [µg/mL]	equilibrium solubility of riboflavin ([1]; no FMN present)	solubility thermodynamic ([1]; no FMN present, read-out: equilibrium solubility of riboflavin) [µg/mL]	solubility of lumichrome in the current formulation [2]
Cc1cc2nc3c(=O)[nH]c(=O)nc-3n(C[C@H](O)[C@H](O)[C@H](O)CO)c2cc1C [riboflavin]	≤ 365	≤ 1320	approximately 70 mcg/ml	~70 (≈ 186 µM)	–
Cc1cc2nc3[nH]c(=O)[nH]c(=O)c3nc2cc1C [lumichrome]	–	–	–	–	dissolve at levels above the equilibrium solubility
